Results from patent US20260256920A1, “SELECTIVE HISTONE DEACETYLASE 3 (HDAC3) DERADERS AND METHODS OF USE THEREOF” (Dana-Farber Cancer Institute, Inc., priority 2022, published 2026).

Experiments:
[1] = target: T1, HDAC3 (Homo sapiens, UniProt O15379); assay: Quantitative LC-MS proteomics of relative protein abundance in treated Kelly cells; assay type: cell-based; details: 1 μM compound, 5 hr, compared to DMSO control
T1 construct: endogenous in cells; host or cells: Kelly cells
Procedure: Kelly cells were treated with DMSO or 1 μM of compound 2 or 3 for 5 hr and cells were harvested by centrifugation at 4° C. before snap freezing in liquid nitrogen. Cell lysis was performed by the addition of Urea buffer (8 M Urea, 50 mM NaCl, 50 mM 4-(2-hydroxyethyl)-1-piperazineethanesulfonic acid (EPPS) pH 8.5, Protease and Phosphatase inhibitors) followed by manual homogenization by 20 passes through a 21-gauge (1.25 in. long) needle. Lysate was clarified by centrifugation and protein quantified using bradford (Bio-Rad) assay. 50 μg of protein for each sample was reduced, alkylated and precipitated using methanol/chloroform as described in Donovan et al., eLife 7: e38430 (2018). The resulting precipitated protein was resuspended in 4 M Urea, 50 mM HEPES pH 7.4, buffer for solubilization, followed by dilution to 1 M urea with the addition of 200 mM EPPS, pH 8. Proteins were digested for 12 hours at room temperature with LysC (1:50 ratio), followed by dilution to 0.5 M urea and a second digestion step was performed by addition of trypsin (1:50 ratio) for 6 hours at 37° C. […]
The diaPASEF raw file processing and controlling peptide and protein level false discovery rates, assembling proteins from peptides, and protein quantification from peptides was performed using library free analysis in DIA-NN 1.8 (Demichev et al., Nature Methods 17:41-44 (2020)). […]

[2] = target: T2, VHL (Homo sapiens, UniProt P40337); assay: Cellular VHL engagement assay (BRD4BD2-GFP with mCherry reporter cells); assay type: cell-based; details: cells stably expressing BRD4BD2-GFP with mCherry reporter, co-treated with 250 nM BRD4 degrader, 5 h
T2 construct: Cells stably expressing the BRD4BD2-GFP with mCherry reporter were seeded; endogenous in cells; host or cells: unnamed cells stably expressing the BRD4BD2-GFP with mCherry reporter
Procedure: Cells stably expressing the BRD4BD2-GFP with mCherry reporter were seeded at a density of 1000-4000 cells/well in 384-well plates with 50 μL per well of FluoroBrite™ DMEM media (Thermo Fisher Scientific™, A18967) supplemented with 2% FBS a day before compound treatment. Compounds 1 and 2, and 250 nM 1 ((2S,4R)-1-(2R)-2-acetamido-3-[[6-[2-[(6S)-4-(4-chlorophenyl)-2,3,9-trimethyl-6H-thieno[3,2-f][1,2,4]triazolo[4,3-a][1,4]diazepin-6-yl]acetamido]hexyl]thio]-3-methylbutanoyl]-4-hydroxy-N-[4-(4-methylthiazol-5-yl)benzyl) pyrrolidinine-2-carboxamide) were dispensed using a D300e Digital Dispenser (HP), normalized to 0.5% DMSO, and incubated with the cells for 5 h. The assay plate was imaged immediately using an Acumen® High Content Imager (TTP Labtech) with 488 nm and 561 nm lasers in a 2 μm×1 μm grid per well format. The resulting images were analyzed using CellProfiler™.
A series of image analysis steps (an ‘image analysis pipeline’) was constructed. […] A background illumination function was calculated for both red and green channels of each well individually and subtracted to correct for illumination variations across the 384-well plate from various sources of error. […] The fraction of GFP-positive cells/mCherry-positive cells in each well was then calculated, and the green and red images were rescaled for visualization. […]

T1 sequence (O15379 whole entry): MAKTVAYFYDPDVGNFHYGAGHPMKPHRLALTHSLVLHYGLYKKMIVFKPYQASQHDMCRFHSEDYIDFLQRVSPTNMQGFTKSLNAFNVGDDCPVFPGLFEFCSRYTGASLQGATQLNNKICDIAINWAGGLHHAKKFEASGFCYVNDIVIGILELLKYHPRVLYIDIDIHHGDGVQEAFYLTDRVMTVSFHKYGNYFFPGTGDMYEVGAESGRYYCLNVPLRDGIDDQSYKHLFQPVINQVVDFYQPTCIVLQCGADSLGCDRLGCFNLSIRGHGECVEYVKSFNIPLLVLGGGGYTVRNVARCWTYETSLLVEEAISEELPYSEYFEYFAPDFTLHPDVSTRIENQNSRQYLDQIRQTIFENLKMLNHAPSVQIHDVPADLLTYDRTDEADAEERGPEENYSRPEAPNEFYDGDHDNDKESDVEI
T1 sequence (Q9Y618 389-480 partner limits assumed): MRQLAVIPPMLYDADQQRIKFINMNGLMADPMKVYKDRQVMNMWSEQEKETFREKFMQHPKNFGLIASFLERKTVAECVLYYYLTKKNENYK
T2 sequence (P40337 whole entry, species assumed): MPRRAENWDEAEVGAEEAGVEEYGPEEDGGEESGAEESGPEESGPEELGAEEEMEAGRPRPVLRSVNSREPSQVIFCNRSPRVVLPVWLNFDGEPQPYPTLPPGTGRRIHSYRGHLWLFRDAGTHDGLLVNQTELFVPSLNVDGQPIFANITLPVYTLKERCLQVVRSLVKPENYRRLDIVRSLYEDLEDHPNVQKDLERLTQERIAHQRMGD

CCCNNC(=O)/C=C/c1ccc(CN(CCCCCOc2cc(-c3scnc3C)ccc2CNC(=O)[C@@H]2C[C@@H](O)CN2C(=O)[C@@H](NC(=O)C2(F)CC2)C(C)(C)C)CCc2c[nH]c3ccccc23)cc1 [Compound 3, (2S,4R)—N-(2-((5-((2-(1H-indol-3-yl)ethyl) (4-((E)-3-oxo-3-(2-propylhydrazineyl)prop-1-en-1-yl)benzyl)amino)pentyl)oxy)-4-(4-methylthiazol-5-yl)benzyl)-1-((S)-2-(1-fluorocyclopropane-1-carboxamido)-3,3-dimethylbutanoyl)-4-hydroxypyrrolidine-2-carboxamide]
relative change in HDAC3 protein abundance (degradation and selectivity) [1]: significant and selective reduction in HDAC3 protein levels

CCCNNC(=O)/C=C/c1ccc(CN(CCOCCC(=O)N[C@H](C(=O)N2C[C@H](O)C[C@H]2C(=O)N[C@@H](C)c2ccc(-c3scnc3C)cc2)C(C)(C)C)CCc2c[nH]c3ccccc23)cc1 [Compound 1, (2S,4R)-1-((S)-2-(3-(2-((2-(1H-indol-3-yl)ethyl) (4-((E)-3-oxo-3-(2-propylhydrazineyl)prop-1-en-1-yl)benzyl)amino)ethoxy)propanamido)-3,3-dimethylbutanoyl)-4-hydroxy-N—((S)-1-(4-(4-methylthiazol-5-yl)phenyl)ethyl) pyrrolidine-2-carboxamide]
IC50 [2]: 16.8 µM

CCCNNC(=O)/C=C/c1ccc(CN(CCOCCOCCC(=O)N[C@H](C(=O)N2C[C@H](O)C[C@H]2C(=O)N[C@@H](C)c2ccc(-c3scnc3C)cc2)C(C)(C)C)CCc2c[nH]c3ccccc23)cc1 [Compound 2, (2S,4R)-1-((S)-14-(tert-butyl)-1-(1H-indol-3-yl)-12-oxo-3-(4-((E)-3-oxo-3-(2-propylhydrazineyl)prop-1-en-1-yl)benzyl)-6,9-dioxa-3,13-diazapentadecan-15-oyl)-4-hydroxy-N—((S)-1-(4-(4-methylthiazol-5-yl)phenyl)ethyl) pyrrolidine-2-carboxamide]
relative change in HDAC3 protein abundance (degradation and selectivity) [1]: significant and selective reduction in HDAC3 protein levels
IC50 [2]: 6.78 µM
